These are literature values, as cited in patent US6410548B1, “Spiropiperidine derivatives as melanocortin receptor agonists” (Merck & Co., Inc., priority 1998, dated 2002).

One data set deals with normal male volunteers. To be noted: intramuscular, 0.005-0.03 mg/kg, three normal male volunteers.
The test system of data set [1] is non-organic impotent patients. To be noted: intramuscular, 0.025 mg/kg and 0.1 mg/kg, 10 non-organic impotent patients.
A further data set concerns rodents. The following applies: injected ICV; feeding models NPY, ob/ob, agouti, fasted.

Consider melanotan-II [MT-II], for which, in the data set on normal male volunteers, the “period of intermittent non-painful penile erections after dosing” value was 1 to 5 h. In addition, in data set [1], the “onset of transient erections” value was 50 to 180 min and the “responders (transient erections)” value is 8. The “effect on food intake” value in the data set on rodents was “reduces food intake”.
As to SHU-9119, the “effect on food intake” value in the data set with rodents is “reverses this effect and can induce hyperphagia”.
